System: SK-MEL-5 TRPM1-promoter luciferase reporter, 24 h
Test: reducers of TRPM1 reporter luminescence, concentration series – cell-based, SK-MEL-5, cherry-picked, set 4, MITF inhibitor project, dose response (AID 493102);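 note: actives lower the luciferase signal so the potency reflects inhibition of reporter expression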

SMILES | AC50 [µM]
COc1ccc(-c2c[n+](CC(=O)OC3CC(C)CCC3C(C)C)c3n2CCC3)cc1 (centres undefined) | 4.87
O=C(Nc1ccc2nc3n(c(=O)c2c1)CCCCC3)c1cc([N+](=O)[O-])ccc1F | 10.7
CCOC(=O)N1C(=O)[C@](CC)(c2ccccc2)N1C(=O)OCC | 10
N=c1n(CC(=O)c2ccc(Br)cc2)c2ccccc2n1Cc1ccccc1 | 6.41
CC(C)(C)c1ccc(Cn2c(=N)n(CC(O)c3ccco3)c3ccccc32)cc1 (centres undefined) | 11.8
CCN1CCN(c2ccc(NC(=O)c3ccc([N+](=O)[O-])o3)cc2Cl)CC1 | 9.54
O=C(Cc1ccccc1)NCC(=O)N/N=C/c1ccc([N+](=O)[O-])s1 | 16.1
CCOc1cc(/C=N/Nc2cccc(C(=O)O)c2)ccc1OC(=O)c1ccccc1 | 1.38
O=C(O)/C=C/C(=O)c1ccc2c(c1)CCc1ccccc1-2 | 15
C/C(=N\NC(=O)C(C)Oc1ccc([N+](=O)[O-])cc1)c1ccccn1 (centres undefined) | 2.39
Cc1ccc(NC(=O)CCl)cc1S(=O)(=O)N1CCCCCC1 | 7.55
COc1cccc2sc(N3CCN(C(=O)c4ccc([N+](=O)[O-])o4)CC3)nc12 | 7.03
Cc1cc(C)c2c(N)c3cccc(C)c3nc2n1 | 3.21
COc1cc(NC(=O)c2ccc([N+](=O)[O-])o2)ccc1NC(=O)c1cccs1 | 8.46
Cc1scc(C(=O)N/N=C/c2ccc([N+](=O)[O-])o2)c1C | 2.19
Cc1c(CCOC(=O)c2ccc(Cl)cc2Cl)sc[n+]1CC(=O)c1ccc(Br)cc1 | 19.8
CN(C)CCNC(=O)/C(=C/c1ccc(-c2ccc(Cl)cc2Cl)o1)NC(=O)c1ccccc1 | 4.97
COc1ccc(C(=O)/C=C/C(=O)N(CC(=O)NC2CCCCC2)Cc2ccc(F)cc2)c(O)c1 | 5.45
O=c1nc(N/N=C/c2ccccn2)cn[nH]1 | 4.65
Cc1c(N=C2C=CC(=O)c3ccccc32)c(=O)n(-c2ccccc2)n1C | 5.26
O=C(Nc1ccccc1N1CCN(C(=O)c2ccccc2)CC1)c1ccc([N+](=O)[O-])o1 | 11.4
Cn1c(SCC(=O)N/N=C/c2ccc([N+](=O)[O-])s2)nnc1-c1ccccc1 | 4.28
C(#Cc1ccccc1)C[N+]1(CC#Cc2cccc3ccccc23)CCCC1 | 6.21
CC1CCCC(NCC(O)COC(c2ccc(F)cc2)c2ccc(F)cc2)C1C (centres undefined) | 10.8
CCOc1ccc(-n2c(C)cc(C(=O)CCl)c2C)cc1 | 4.59
COc1ccc(NS(=O)(=O)c2cc(NC(=O)CNC(=O)c3cccc(OC)c3)ccc2C)cc1 | 11
O=C(CCl)Nc1cccc(-c2cnc3ccccc3n2)c1 | 4.02

SMILES | AC50 [µM]
COc1ccccc1N(C(=O)CCl)c1cn(C(C)=O)c2ccccc12 | 8.82
COc1cc([N+](=O)[O-])cc(/C=N/NC(=O)c2ccc(NC(=O)c3ccc(C)cc3)cc2)c1O | 1.55
COc1ccc(-c2cc(-c3ccccc3)[n+](C)c(-c3ccccc3)c2)cc1 | 3.2
COc1ccc(C(=O)N/N=C/c2cc(Br)ccc2O)cc1OC | 4.76
CC(=O)c1ccc(S(=O)(=O)N2CCN(C(=O)/C=C/c3ccc4ccccc4n3)CC2)cc1 | 12
Cc1ccccc1C(=O)N1CCN(c2ccc(NC(=O)c3ccc([N+](=O)[O-])o3)cc2)CC1 | 6.2
COc1ccc(C(NC(C)=O)c2ccc3cccnc3c2O)c(OC)c1 (centres undefined) | 5.15
O=C1NC(=O)N(Cc2ccccc2Cl)C(=O)/C1=C/c1cccs1 | 29.7
O=C(O)c1ccc(N/N=C/c2ccc(OC(=O)c3cccc(Cl)c3)cc2)cc1 | 3.21
CC1CC(C)CN(C(=O)/C=C/c2ccc([N+](=O)[O-])s2)C1 (centres undefined) | 11.9
COc1ccccc1NC(=O)c1cnc(SCC(=O)NCC2CCCO2)n(C)c1=O (centres undefined) | 8.88
O=C(Nc1cccc(Cl)c1)Nc1cc(S(=O)(=O)N2CCCCC2)ccc1Cl | 12
Nc1nc2ccccc2n1/N=C/c1ccc([N+](=O)[O-])s1 | 2.81
COC(=O)CSC1=C(C#N)C(=O)NC(c2ccccc2)S1 (centres undefined) | 7.06
COc1ccc(CCn2c(=S)[nH]c3cc(C(=O)NCc4ccco4)ccc3c2=O)cc1OC | 17.7
O=C(CCl)N(Cc1cc(=O)[nH]c2ccccc12)c1ccccc1 | 5.42
N=c1n(CCN2CCCC2)c2ccccc2n1CC(O)c1ccc(Cl)c(Cl)c1 (centres undefined) | 11.8
Cn1cccc1-c1cc(C(=O)N/N=C/c2cc(Br)ccc2O)[nH]n1 | 5.25
CCOc1ccc(OCc2ccc(C(=O)N/N=C(\C)c3ccccn3)cc2)cc1 | 3.64
CCSCCc1nnc(NC(=O)Nc2cccc(C(F)(F)F)c2)s1 | 8.99
C/C(=N\NC(=O)COc1ccccc1-c1ccccc1)c1ccccn1 | 4.58
O=S1(=O)CCC(NC(=S)SCc2ccccc2Br)C1 (centres undefined) | 25.6
Cc1ccc(C)c(-n2c3nc(=O)[nH]c(=O)c-3cc3cc([N+](=O)[O-])ccc32)c1 | 8.42
CCOC(=O)N1CCC(NC(=O)C2CCCN(Cc3nc(-c4cccc(C)c4)oc3C)C2)CC1 (centres undefined) | 34.9
CCN1CCN(c2ccc(Nc3ccnc4ccccc34)cc2)CC1 | 12.3
CCC(=O)OCCNc1cc(Sc2nc3ccccc3[nH]2)c2nonc2c1[N+](=O)[O-] | 9.14
O=C(NC1=C(Nc2ccc(Cl)cc2)C(=O)c2ccccc2C1=O)c1ccccc1 | 0.93

From PubChem BioAssay AID493102 (Broad Institute, 2011)
